We go through 14 compounds from publication PMC9365994, “Small molecules to regulate the GH/IGF1 axis by inhibiting the growth hormone receptor synthesis” (Frontiers in Endocrinology, 2022).

Assay [1] has as its system GH-induced GHR-Jak2-Stat5 signaling in IM9 lymphoblasts. Description: Flow cytometric (FACS) pSTAT5 test, GH-induced, IM9 cells in whole blood. The conditions noted are these: drugs 50 µM for 15 MIN.
Procedure: First round: The PerFix EXPOSE (Beckman Coulter), was used to fix and permeabilize cells according to the optimized procedure described in Malergue et al., 2015 ([36]). Samples were analyzed in FC500 MPL. Data were analyzed with Kaluza software (Beckman Coulter). Second round: the PerFix EXPOSE was used according to the IFU and samples were analyzed in a Navios Cytometer. The first screening used pure IM-9 cells, whereas in the second round they were spiked in 100 µL whole blood (EDTA tubes). 15 min after the inhibitory compounds, the activators were added for 20-30 min.
In short: A mixture of blood and
IM9 human lymphoblast was incubated with the drugs (50 µM) for 15 MIN; GH and GM-CSF
were added 7 min before the cells were fixed with formaldehyde. Blood cells are sensitive to
GM-CSF, and not to GH; IM9 cells are sensitive to GH. A mixture of three antibodies in three
colors; CD14-FITC, CD34-PE and p-Stat5-Alexa 647 was used to analyze the p-Stat5 levels
of monocytes and IM9 cells.
Fig. S8A. FACS plots of compounds that inhibit GH-induced GHR-Jak2-Stat5 signaling in IM9 lymphoblasts.
The end point of the signaling cascade is measured by assessing the phosphorylation status of STAT5.
Stat5. Conc of drugs: 1 mM; incubation time 30 min
Fig. S8B. […]
point of the signaling cascade is measured by assessing the phosphorylation status of STAT5.
In assay [2] the test system is phosphorylated fos-GHRct (fos-GHRct/Jak2 signaling). Briefly: Cell based primary screen: immune fluorescence (anti-GHR, anti-pY, anti-pJak2, anti-pSTAT5) of fos-GHRct-transfected γ2A iJak2 cells. More on the design: species or system human. The conditions noted are these: for IC50: Homo sapiens, Table_2.xlsx, second analogue set, read-out: GHR INHIBITORS, BM#, IC50. The method, then:
Drug handling and cell-based assays are detailed in Supplementary Data 1 , automation. High-Content StratoMineR ([35]). After incubation with the compounds, the cells were fixed and the fluorescence (anti-GHR, anti-pY, anti-pJak2, anti-pSTAT5) was quantitated.
As it was unknown whether the GH/IGF1 axis is druggable, we designed a broad strategy based on our previous studies in which soluble fos-zipped GHR cytosolic tails (fos-GHRct) can serve as signaling complexes if co-expressed with Jak ([32], [39]). Fos-GHRct expressed without Jak2 is immediately degraded by the ubiquitin pathway. Phosphorylated fos-GHRct (fos-pGHRct) detaches from Jak2 and unzips. Only unzipped fos-pGHRct are protected from proteasomal degradation and accumulate in the cell. […] For 6 scenarios the signal will be decreased: (1) inhibition of Jak2 kinase activity, (2) inhibition of fos-GHRct expression, (3) inhibition of the fos-GHRct : Jak2 interaction, (4) increased degradation of fos-pGHRct, (5) increased degradation of Jak2, and (6) dephosphorylation of fos-pGHRct ([32], [39]).
Figure 1 Diagram of the primary screen. […] If fos-GHRct and Jak2 bind via FERM and box-1, Jak2 gets activated and phosphorylates itself, the dimerized fos-GHRct and STAT5b. After phosphorylation of fos-GHRct, Jak2 and STAT5, the complex dissociates. As fos-pGHRct is protease-resistant, it accumulates in the cells. Unphosphorylated fos-GHRct is rapidly degraded. Steady state levels of fos-pGHRct are lower if one of the 6 scenarios is valid. The cell-based assay was performed in γ2A cells carrying inducible Jak2 (iJak2) or binding-deficient iJak2 Y119E (as control) ( Figure 2 ). […]
1. Cell based primary screen
The assay was based on Fos-zippered GHR cytosolic tails (fos-GHRct) subsequently acting […]
Fig S1A. Immune Fluorescence staining of γ2a Fig S1B. Immune Fluorescence staining of γ2a monoclonal cell line stably transfected with an monoclonal cell line stably transfected with an inducible Jak2 WT expression construct. inducible Jak2 Y119E expression construct. aim we used a human fibroblast cell line
From this line we generated doxycycline inducible Jak2 clones, expressing either wild type Jak2 or Y119E mutant Jak2 whose FERM domain does […]
To establish a sensitive test, sufficient […]
control the system, we used fos-GHRct mutated in box-1 or the cell line expressing mutant (Y119E) Jak2. The box-1 motif is the binding site of Jak2 in GHR; mutation of this motif (all four proline into alanine) is known to reduce the binding between GHR and Jak2. In the primary screen we measured 4 different signals: fos-GHRct (anti-GHR), tyrosine phosphorylated fos-GHRct (anti-pY), tyrosine phosphorylated Jak2 (anti-pY or anti- […]
inhibition of either fos-GHRct stabilization or fos-GHRct synthesis, are considered positive.
Immunoblots are not appropriate for high throughput screening. Using fos-GHRct-transfected cells as in Fig. S3 and pY-specific primary antibodies, we developed a high throughput screening assay based on pY-fos-GHRct immune fluorescent detection in 384-well plates with automated microscopy. […]
panel). From left to right: Dapi staining to visualize nuclei, fos-GHRct staining: GHRtails are detected by […]

For assay [3], the system named is MM231. More on the design: method as in PMID 28576744, PMID 17463090. To be noted: cited from earlier work.
In assay [4] the test system is hGH. Briefly: Steady state hGH in hGH-transfected Y2A cells (general protein synthesis). The format is cell-based, human. To be noted: drug treatment overnight (10 µM); CHX 40 µg/ml. From the text: Figure S14. The best 5 compounds from the dose-response curves were used to test their effect on cell proliferation. They inhibit proliferation of triple negative human breast cancer (MDA-MB-231) cells and colon […]
8. Effect of selected drugs on GH synthesis […]
intracellular steady state concentration of a secretory glycoprotein (human growth hormone, hGH): its steady state is the result of synthesis, glycosylation, intracellular transport and […]
amount of hGH, while none of the compounds changed the steady state concentration in the […]
Figure S15. Y2A cells were transfected with 5 µg of a hGH-pcDNA construct in a 24-well plate; drug treatment overnight (10 µM) as indicated (CHX, cycloheximide 40 µg/ml). […]
control drug, 10 µM. Right lane: human GH 20 ng (control). Only cycloheximide decreased the steady state concentration of hGH in the cells. hGH in the lysates was detected with a rabbit anti-GH antibody.
Furqan, M., N. Mukhi, B. Lee, and D. Liu. 2013. Dysregulation of JAK-STAT pathway in hematological malignancies and JAK inhibitors for clinical application. Biomarker research. 1:5.
Malergue, F., A. van Agthoven, C. Scifo, D. Egan, and G.J. Strous. 2015. Automation of a phospho-STAT5 staining procedure for flow cytometry for application in drug discovery. J Biomol Screen. 20:416-421.
Nespital, T., L.M. van der Velden, A. Mensinga, E.D. van der Vaart, and G.J. Strous. 2016. […]

Assay [5] relates to COLO-205 human colon cancer cells. More on the design: method as in PMID 15736405. To be noted: cited from earlier work.

With `O=C1C(Cl)=C/C(=N/S(=O)(=O)c2cccs2)c2ccccc21` [AQ-390/41647621], the “inhibition in the FACS assay” value in assay [1] was above 30%. In the case of `CCOC(=O)CCOc1c(OC)cc(NCc2ccc3nc(N)nc(N)c3c2C)cc1OC` [BM005], the half-maximal inhibitory concentration (IC50) (usually the concentration that gives 50% inhibition) in assay [2] stood at 200 nM. On the same count and under the same terms, under `Cc1nc(N)nc(N)c1CCC(C)c1ccc(F)cc1` (stereo not drawn) [BM006] stands 200 nM; under `CC(C)(/C=C/c1c(N)nc(N)nc1CCC(F)(F)F)c1ccc(C(F)(F)F)cc1` [BM007], 400 nM; under `Cc1cc(C)cc(-c2ccc3nc(N)nc(N)c3c2C)c1` [BM008], 500 nM.

As for `Nc1nc(N)c2c(ccc3c2ccn3CC2CC2)n1` [BM009], the IC50 in assay [2] came out at 600 nM.

With `Cc1nc(N)nc(NCc2ccccn2)c1/C=C/C(C)(C)c1ccc(C(F)(F)F)cc1` [BM010], the 50% inhibitory concentration (IC50) in assay [2] turned out to be 800 nM. The same measure, in the same setting: under `Cc1c(-c2cccc(S(C)(=O)=O)c2)ccc2nc(N)nc(N)c12` [BM011] stands 900 nM.

For the compound `Cc1c(-c2cccc(C(F)(F)F)c2)ccc2nc(N)nc(N)c12` [BM013], in assay [2], the IC50 came to 900 nM. Regarding `CC1(C)Cc2ccc3nc(N)nc(N)c3c2O1` [BM014], in assay [2], the IC50 came out at 900 nM. As to `CCn1c(C(=O)N(C2CC2)C2CC2)cc2c3c(ncn3C)c(Nc3cc(C)n(C)n3)nc21` [BMS-911543, reference compound], the “IC50, percentage pY positive cells” value in assay [2] (γ2A cells treated for 24 h, Fig S5) is listed as “nanomolar range”.

On to `Cc1ccc(S(=O)(=O)OCC(=O)Nc2ccc(C(=O)O)c(O)c2)cc1` [S3I-201], for which the “tumor response (in words)” value in assay [3] is recorded as “tumor regression”.

Turning to `C[C@@H]1C[C@@H]([C@H](O)CC2CC(=O)NC(=O)C2)C(=O)[C@@H](C)C1` [cycloheximide], the “steady state concentration of hGH in the cells” value in assay [4] is recorded as “decreased”. With pegvisomant, in assay [5], the “decrease in tumor weight compared to controls” value is recorded as 44% and the “decrease in tumor-volume compared to controls” value is on record as 39%.
